# In a melting point compilation (Tetko et al.; mined from patent text by program, amines drawn as free bases though some values may be those of a salt):
row,Structure (SMILES),melting point [°C]
1,O=c1c(Cl)c(Cl)sn1C1CCCCC1,114 to 116
2,Cc1ncc2n1-c1ccc(Cl)cc1C(c1ccccc1F)N(C)C2 (centres undefined),156 to 158
3,Cc1cc(=O)n2c3c(cc(C(O)(C(F)(F)Cl)C(F)(F)Cl)cc13)CC2,256 to 257
4,Cc1nnc(NC2CCCCC2)s1,192 to 194
5,CCOC(=O)c1ncc2[nH]c3ccc(C4CCCCC4)cc3c2c1C,191 to 193
6,CCN1CCN(c2c(F)cc3c(=O)c(C(=O)O)cn(CC)c3c2F)CC1,236 to 239
7,CN(CCc1ccccc1)c1ssc(=O)c1Cl,75
8,O[C@H]1[C@H](O)CS[C@H]1n1cnc2c(Cl)ncnc21,192 to 193
9,Nc1ncc(C2OC(CO)C(O)C2O)c(=O)[nH]1 (centres undefined),216 to 217
10,CCCc1c(OCCCOc2cccc3c2CCCC3)ccc2c1OC(CCC(O)CO)(CCC(O)CO)CC2=O (centres undefined),113 to 115
11,C[C@]1(CN2CCN(C(=O)NC3CCCCC3)CC2)Cn2cc([N+](=O)[O-])nc2O1,98 to 101
12,CCc1cn(C[C@@H](C)O)c2cc(Cl)c(F)cc12,112 to 114
13,Cc1nc2c(N)nc3ccccc3c2s1,184 to 187
14,O=C(O)CCCNC1=NS(=O)(=O)c2ccccc21,200 to 202
15,COC(=O)c1nc(Oc2ccccc2)c(Cl)c(N)c1Cl,88 to 90
16,COc1cc(C(=O)N2CC3CC(C2)CN(C(C)C)C3)cc(OC)c1OC,67.5 to 69.5
17,CCc1nc2c(O)c(CN(C)C)c(C(=O)N(C)C)cc2n1C,183 to 185
18,CCCC=Cc1ncn2c1CN(C)C(=O)c1cc(F)ccc1-2,150 to 151
19,COc1ccc(C2=NOC3(C2)C(=O)CN(C)C3=O)cc1OC1CCCC1 (centres undefined),169 to 170

# More lines, now with the values ahead:
row,melting point [°C],Structure (SMILES)
1,274 to 276,CC1(C)CCSc2cc(C(=O)Nc3ccc(C(=O)O)cc3)ccc21
2,159,CC(CC1COC(c2ccc(C(=O)Nc3ccc(C#N)cc3)cc2)OC1)C(O)(Cn1cncn1)c1ccc(F)cc1F (centres undefined)
3,143 to 148,COC(=O)c1ccccc1C1=NC(C)(C(C)C)C(=O)N1Sc1ccccc1[N+](=O)[O-] (centres undefined)
4,182 to 183,CC(C)(C)CC(=O)Nc1ccc2oc3c(c2c1)CCCCC3
5,195 to 196,Cc1ccc2nc(-c3cc(C(F)(F)C(F)(F)F)nn3-c3ccc(S(C)(=O)=O)cc3)sc2c1
6,218 to 220,CC1Cc2cc3c(cc2C(c2ccc([N+](=O)[O-])cc2)=NN1C1=NC(=O)CS1)OCO3 (centres undefined)
7,189 to 190,COc1ccc(-n2c(=O)cc(C)c3c(=O)n(-c4ccccc4)[nH]c32)cc1
8,> 275,Cc1cc(C)c(CNc2cccc(S(=O)(=O)O)c2)c(C)c1
9,156 to 158,O=[N+]([O-])c1cc(CO)cc([N+](=O)[O-])c1-c1ccc(O)cc1
10,88,COc1ccc(C(F)(F)F)cc1C(=O)c1ccc(C#N)cc1
11,110 to 112,CC(=O)SC(CC(=O)N[C@@H](Cc1ccccc1)C(=O)O)C(=O)c1ccccc1 (some centres undefined)
12,101,CCCCc1oc2ccc([N+](=O)[O-])cc2c1S(=O)(=O)c1ccc(OCCCBr)cc1
13,70 to 71,CCOC(=O)NCCOc1cc(Oc2ccc(C(F)(F)F)cc2Cl)ccc1[N+](=O)[O-]
14,158 to 159,COc1ccc(CN(CC2CCOCC2)S(=O)(=O)c2ccc(Cl)cc2)cc1C(=O)O
15,239 to 240,CC(=O)NC[C@H]1CN(c2ccc(C(=O)c3cnc4c5ccccc5ccn34)cc2)C(=O)O1
16,179 to 180,COc1ccc(C2=C(c3ccc(S(N)(=O)=O)cc3)CCC2)cc1Cl
17,115 to 117,Cc1ccc2[nH]c3c(c2c1)C(C(=O)OCc1ccccc1)CCC3 (centres undefined)
18,218 to 220,Oc1ccc2ccc(OCc3ccc4ccccc4n3)cc2c1
19,178 to 180,CC(CCCNc1ccccc1)C1CC=C2C3=C(CCC21C)C1(C)CCC(O)C(C)(C)C1CC3 (centres undefined)
20,200 to 202,COc1ccccc1COc1ccc(S(=O)(=O)c2cnc(C)nc2Nc2c(C)cc(C)cc2C)cc1
